Assay results taken from patent US9499493B2, “2,4-pyrimidinediamine compounds and their uses” (Rigel Pharmaceuticals, Inc., priority 2002, dated 2016).
pIC50: −log10 of the molar value.

Key:
[1] = system: cultured human mast cells (CHMC); assay: CHMC low cell density ionomycin activation: tryptase assay; type: cell-based
[2] = system: cultured human mast cells (CHMC); assay: CHMC low cell density IgE activation: tryptase assay; type: cell-based; conditions: anti-IgE
How it was run: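 Read-out: tryptase released into supernatant, measured by substrate turnover over 30 min at RT. Low-density CHMC (1000-1500 cells/well, per donor degranulation activity) in MT buffer, 1 hr at 37° C, then anti-IgE challenge 30 min at 37° C.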

| pIC50 [1] | pIC50 [2] | SMILES |
| --- | --- | --- |
| < 5.00 | 5.92 | OCCn1ncc2cc(Nc3nc(Nc4ccc5c(c4)OCCO5)ncc3F)ccc21 [R935258, N2-(3,4-Ethylenedioxyphenyl)-5-fluoro-N4-[1-(2-hydroxyethyl)indazoline-5-yl]-2,4-pyrimidinediamine] |
| < 5.00 | 6.61 | NC(=O)CNc1cccc(Nc2ncc(F)c(Nc3ccc4c(c3)OCCO4)n2)c1 [R950192, N2-[3-(N-Amino)carbonylmethyleneaminophenyl]-N4-(3,4-ethylenedioxyphenyl)-5-fluoro-2,4-pyrimidinediamine] |
| < 5.00 | < 5.00 | CC1(C)Oc2ccc(Nc3nc(Cl)ncc3F)cc2NC1=O [Compound R940322] |
| < 5.00 | < 5.00 | O=C(COc1ccc(Nc2ncc(F)c(Nc3ccc(OCC(=O)N4CCCC4)cc3)n2)cc1)N1CCCC1 [R926563, N2,N4-Bis(4-N-pyrrolidinocarbonylmethyleneoxyphenyl)-5-fluoro-2,4-pyrimidinediamine] |
| < 5.00 | < 5.00 | COc1ccc(Nc2ncc(F)c(Nc3ccc(OC)c(-c4ccccc4)c3)n2)cc1-c1ccccc1 [R926399, N2,N4-Bis[(4-methoxy-3-phenyl)phenyl]-5-fluoro-2,4-pyrimidinediamine] |
| < 5.00 | 6.90 | Fc1cnc(Nc2ccc3[nH]ncc3c2)nc1Nc1ccc2c(c1)OCCO2 [R935198, N4-(3,4-Ethylenedioxyphenyl)-5-fluoro-N2-(indazoline-5-yl)-2,4-pyrimidinediamine] |
| < 5.00 | 6.24 | O=C(COc1cccc(Nc2ncc(F)c(Nc3ccc4c(c3)OCCO4)n2)c1)N(CCO)CCO [R926781, N2-[3-[N,N-Bis-(2-hydroxyethylamino)]carbonylmethyleneoxyphenyl]-N4-(3,4-ethylenedioxyphenyl)-5-fluoro-2,4-pyrimidinediamine] |
| < 5.00 | 6.16 | CNC(=O)COc1cc(Nc2ncc(F)c(Nc3cccc(O)c3)n2)ccc1OC [R926829, 5-Fluoro-N4-(3-hydroxyphenyl)-N2-[4-methoxy-3-(N-methylamino)carbonylmethyleneoxyphenyl]-2,4-pyrimidinediamine] |
| < 5.00 | 5.52 | Nc1ccc(Nc2ncc(F)c(Nc3ccc(N)cc3)n2)cc1 [R950122, N2,N4-Bis(4-aminophenyl)-5-fluoro-2,4-pyrimidinediamine] |
| < 5.00 | 5.86 | O=C(CNc1cccc(Nc2ncc(F)c(Nc3cccc(O)c3)n2)c1)NCCN1CCOCC1 [R950226] |
| < 5.00 | 5.95 | CNC(=O)COc1cccc(Nc2ncc(F)c(Nc3cccc(CN)c3)n2)c1 [R940309, N4-(3-Aminomethylenephenyl)-5-fluoro-N2-[3-(methylaminocarbonylmethyleneoxy)phenyl]-2,4-pyrimidinediamine] |
| < 5.00 | 6.15 | CCOC(=O)COc1ccc(Nc2ncc(C(F)(F)F)c(Nc3ccc(OCC(=O)OCC)cc3)n2)cc1 [R925862, N2,N4-Bis[4-(ethoxycarbonylmethyleneoxy)phenyl]-5-trifluoromethyl-2,4-pyrimidinediamine] |
| < 5.00 | 5.73 | Cc1noc(COc2cccc(Nc3nc(Nc4cccc(O)c4)ncc3F)c2)n1 [R945130, 5-Fluoro-N2-(3-hydroxyphenyl)-N4-[3-(3-methyl-1,2,4-oxadiazol-5-yl)methyleneoxyphenyl]-2,4-pyrimidinediamine] |
| < 5.00 | < 5.00 | CCOC(=O)COc1ccc(Nc2nc(Nc3ccc(OCC(=O)OCC)cc3)c(NC(=O)Nc3ccccc3)c(C(=O)OCC)n2)cc1 [R926571, N2,N4-Bis(4-ethoxycarbonylmethyleneoxyphenyl)-6-ethoxycarbonyl-5-(phenylaminocarbonylamino)-2,4-pyrimidinediamine] |
| < 5.00 | 6.05 | COC(=O)COc1cccc(Nc2ncc(F)c(Nc3ccc(OC(C)C)cc3)n2)c1 [R945125, 5-Fluoro-N4-(4-isopropoxyphenyl)-N2-(3-methoxycarbonylmethyleneoxyphenyl)-2,4-pyrimidinediamine] |
| < 5.00 | 5.87 | CNC(=O)COc1cccc(Nc2ncc(F)c(Nc3cccc(C(=O)c4ccccc4)c3)n2)c1 [R950372, N4-(3-Phenylcarbonylphenyl)-5-fluoro-N2-[3-(N-methylamino)carbonylmethyleneoxyphenyl]-2,4-pyrimidinediamine] |
| < 5.00 | 6.69 | COC(=O)c1cc(Nc2ncc(F)c(Nc3ccc(OC(C)C)cc3)n2)cn1C [R935164, 5-Fluoro-N4-(4-isopropoxyphenyl)-N2-[(N-methyl-2-methoxycarbonyl)pyrrol-4-yl]-2,4-pyrimidinediamine] |
| < 5.00 | 6.86 | CC(O)CNC(=O)COc1cccc(Nc2ncc(F)c(Nc3ccc4c(c3)NCCO4)n2)c1 (stereo not shown) [R909251, N4-(1,4-Benzoxazin-6-yl)-5-fluoro-N2-[3-(N-2-hydroxypropylamino)carbonylmethyleneoxyphenyl]-2,4-pyrimidinediamine] |
| < 5.00 | 6.47 | CC(C)Oc1ccc(Nc2nc(Nc3ccc4cnn(CCCO)c4c3)ncc2F)cc1 [R935290, 5-Fluoro-N2-[1-(3-hydroxypropyl)indazoline-6-yl]-N4-(4-isopropoxyphenyl)-2,4-pyrimidinediamine] |
| < 5.00 | 6.68 | OCCOc1ccc(Nc2ncc(F)c(Nc3ccc4c(c3)OCCCO4)n2)cc1 [R935186, 5-Fluoro-N2-[4-(2-hydroxyethoxy)phenyl]-N4-(3,4-propylenedioxyphenyl)-2,4-pyrimidinediamine] |
| < 5.00 | 6.43 | CC(C)Oc1ccc(Nc2nc(Nc3ccc4c(cnn4CCO)c3)ncc2F)cc1 [R935255, 5-Fluoro-N2-[1-(2-hydroxyethyl)indazoline-5-yl]-N4-(4-isopropoxyphenyl)-2,4-pyrimidinediamine] |
| < 5.00 | 6.05 | CN(C)C(=O)COc1cccc(Nc2ncc(F)c(Nc3ccc4c(c3)OCCO4)n2)c1 [R925755, N4-(3,4-Ethylenedioxyphenyl)-N2-[3-(N,N-dimethylamino)carbonylmethyleneoxyphenyl]-5-fluoro-2,4-pyrimidinediamine] |
| < 5.00 | 5.00 | COCCOc1ccc(Nc2ncc(F)c(Nc3ccc(OCCOC)cc3)n2)cc1 [R926342, N2,N4-Bis[4-(2-methoxyethyleneoxy)phenyl]-5-fluoro-2,4-pyrimidinediamine] |
| 5.25 | 6.60 | CC(C)(CO)NC(=O)COc1cccc(Nc2ncc(F)c(Nc3ccc4c(c3)OCCO4)n2)c1 [R926764, N4-(3,4-Ethylenedioxyphenyl)-5-fluoro-N2-[3-(N-2-hydroxy-1,1-dimethylethylamino)carboxymethyleneoxyphenyl]-2,4-pyrimidinediamine] |
| < 5.00 | 6.31 | CCOC1CCOc2ccc(Nc3nc(Nc4cccc(OCC(=O)NC)c4)ncc3F)cc21 (stereo not shown) [R950296, N4-(4-Ethoxy-3,4-dihydro-2H-1-benzopyran-6-yl)-5-fluoro-N2-[3-(N-methylamino)carbonylmethyleneoxyphenyl]-2,4-pyrimidinediamine] |
| < 5.00 | 5.10 | CNC(=O)COc1cccc(Nc2nc(Nc3ccc(OCCN(C)C)cc3)ncc2F)c1 [R909253, N2-[4-(2-N,N-Dimethylaminoethyl)oxyphenyl]-5-fluoro-N4-[3-(N-methylamino)carbonylmethyleneoxyphenyl]-2,4-pyrimidinediamine] |
